Source: ChEMBL document CHEMBL4825753 (J Med Chem, 2021)
The source made the active and inactive calls. No cut-off for these calls is given here.

Legend:
[1] = Induction efferocytosis in human PBMC assessed as CD14-positive monocytes
[2] = Lipophilicity, log D of the compound at pH 7.4; format: physicochemical; settings: buffer
[3] = biological target: T1, Tyrosine-protein kinase receptor UFO (Homo sapiens, UniProt P30530); assay: Inhibition of FLAG-tagged AXL (unknown origin) transfected in Cos-7 cells assessed as phosphorylation level incubated for 1 hr by ELISA; format: cell-based
T1 sequence (P30530 whole entry): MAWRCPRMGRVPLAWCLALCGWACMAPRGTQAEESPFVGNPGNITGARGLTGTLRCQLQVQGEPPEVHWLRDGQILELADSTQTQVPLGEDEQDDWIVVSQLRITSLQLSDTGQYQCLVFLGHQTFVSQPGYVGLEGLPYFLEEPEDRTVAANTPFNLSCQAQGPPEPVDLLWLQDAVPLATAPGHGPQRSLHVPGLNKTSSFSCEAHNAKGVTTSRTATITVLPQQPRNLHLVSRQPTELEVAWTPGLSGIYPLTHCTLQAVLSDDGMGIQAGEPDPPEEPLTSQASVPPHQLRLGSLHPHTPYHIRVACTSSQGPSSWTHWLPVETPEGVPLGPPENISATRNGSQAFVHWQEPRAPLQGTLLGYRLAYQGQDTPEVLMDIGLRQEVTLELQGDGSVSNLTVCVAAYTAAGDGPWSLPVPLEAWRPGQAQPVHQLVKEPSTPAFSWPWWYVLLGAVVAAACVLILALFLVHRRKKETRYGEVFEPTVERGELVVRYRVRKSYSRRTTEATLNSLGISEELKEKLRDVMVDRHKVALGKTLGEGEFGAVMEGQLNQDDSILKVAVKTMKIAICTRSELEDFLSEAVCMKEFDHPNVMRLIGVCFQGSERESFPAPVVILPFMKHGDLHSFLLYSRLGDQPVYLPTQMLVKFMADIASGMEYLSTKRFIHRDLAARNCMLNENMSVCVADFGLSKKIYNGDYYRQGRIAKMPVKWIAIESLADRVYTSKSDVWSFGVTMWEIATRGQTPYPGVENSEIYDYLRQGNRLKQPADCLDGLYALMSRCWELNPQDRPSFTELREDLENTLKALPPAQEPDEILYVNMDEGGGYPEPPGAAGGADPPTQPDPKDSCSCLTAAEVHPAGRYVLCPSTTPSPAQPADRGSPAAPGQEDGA

[4] = biological target: T2, Tyrosine-protein kinase receptor TYRO3 (Homo sapiens, UniProt Q06418); assay: Inhibition of FLAG-tagged Tyro3 (unknown origin) transfected in Cos-7 cells assessed as phosphorylation level incubated for 1 hr by ELISA; format: cell-based
T2 sequence (Q06418 whole entry): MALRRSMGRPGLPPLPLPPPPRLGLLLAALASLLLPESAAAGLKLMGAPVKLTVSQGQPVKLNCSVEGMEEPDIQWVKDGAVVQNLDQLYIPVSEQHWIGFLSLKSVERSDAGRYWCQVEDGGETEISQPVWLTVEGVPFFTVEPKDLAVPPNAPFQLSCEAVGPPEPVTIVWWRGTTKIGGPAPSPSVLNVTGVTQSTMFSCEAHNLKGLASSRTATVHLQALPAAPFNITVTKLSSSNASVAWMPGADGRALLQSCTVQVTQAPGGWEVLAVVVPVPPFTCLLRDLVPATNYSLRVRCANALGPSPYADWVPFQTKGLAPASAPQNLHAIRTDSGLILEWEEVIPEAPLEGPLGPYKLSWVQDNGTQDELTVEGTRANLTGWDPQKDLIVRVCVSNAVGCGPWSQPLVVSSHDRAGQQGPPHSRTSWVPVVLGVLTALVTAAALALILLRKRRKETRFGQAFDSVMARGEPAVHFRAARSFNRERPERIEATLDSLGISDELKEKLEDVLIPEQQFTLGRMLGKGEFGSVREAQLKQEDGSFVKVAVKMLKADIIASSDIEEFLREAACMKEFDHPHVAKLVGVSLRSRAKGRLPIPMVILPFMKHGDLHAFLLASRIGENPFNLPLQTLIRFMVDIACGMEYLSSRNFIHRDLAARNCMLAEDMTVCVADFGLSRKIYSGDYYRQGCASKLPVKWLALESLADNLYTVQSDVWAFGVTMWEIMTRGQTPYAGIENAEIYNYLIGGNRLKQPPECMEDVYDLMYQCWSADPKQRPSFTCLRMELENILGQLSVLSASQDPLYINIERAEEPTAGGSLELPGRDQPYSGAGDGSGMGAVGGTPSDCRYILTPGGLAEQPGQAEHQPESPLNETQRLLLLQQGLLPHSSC

[5] = biological target: T3, Receptor-type tyrosine-protein kinase FLT3 (Homo sapiens, UniProt P36888); assay: Inhibition of FLAG-tagged FLT3 (unknown origin) transfected in Cos-7 cells assessed as phosphorylation level incubated for 1 hr by ELISA; format: cell-based
T3 sequence (P36888 whole entry): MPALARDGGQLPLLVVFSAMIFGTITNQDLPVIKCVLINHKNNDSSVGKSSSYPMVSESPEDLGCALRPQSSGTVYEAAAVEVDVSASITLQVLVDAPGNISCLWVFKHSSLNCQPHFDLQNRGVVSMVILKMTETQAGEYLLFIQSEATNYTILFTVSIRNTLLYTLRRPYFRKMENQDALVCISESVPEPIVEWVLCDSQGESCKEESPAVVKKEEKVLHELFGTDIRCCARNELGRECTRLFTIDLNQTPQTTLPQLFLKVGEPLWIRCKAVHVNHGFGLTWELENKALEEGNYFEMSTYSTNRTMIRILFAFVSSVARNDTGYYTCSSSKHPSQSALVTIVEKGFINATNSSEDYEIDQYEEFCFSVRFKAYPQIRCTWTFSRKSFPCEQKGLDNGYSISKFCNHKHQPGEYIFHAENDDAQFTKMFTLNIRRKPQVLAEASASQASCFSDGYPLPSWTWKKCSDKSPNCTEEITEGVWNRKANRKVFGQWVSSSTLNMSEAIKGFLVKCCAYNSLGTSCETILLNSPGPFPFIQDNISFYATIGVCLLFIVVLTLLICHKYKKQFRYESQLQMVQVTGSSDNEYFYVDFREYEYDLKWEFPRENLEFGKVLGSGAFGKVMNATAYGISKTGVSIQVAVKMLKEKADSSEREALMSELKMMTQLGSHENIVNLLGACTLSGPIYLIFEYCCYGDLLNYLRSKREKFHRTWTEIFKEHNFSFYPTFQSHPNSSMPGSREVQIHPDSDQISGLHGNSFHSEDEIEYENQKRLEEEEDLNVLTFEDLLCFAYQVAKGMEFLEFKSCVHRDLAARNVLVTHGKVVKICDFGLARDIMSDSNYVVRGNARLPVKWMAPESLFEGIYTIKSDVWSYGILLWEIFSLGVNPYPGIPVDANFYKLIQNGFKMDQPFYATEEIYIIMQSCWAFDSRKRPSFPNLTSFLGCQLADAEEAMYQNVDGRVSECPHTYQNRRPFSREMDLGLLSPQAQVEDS

[6] = Photostability of compound assessed as half life; format: physicochemical
BaF3 [7] = assay: Antitumour activity against mouse BaF3 cells transfected with AXL implanted in C57BL/6J mouse assessed as reduction in AXL phosphorylation at 30 to 100 mg/kg, po bid for 6 days western blot analysis; format: functional, organism-based; settings: dose 30-100 mg/kg, time 6.0 day
BaF3 [8] = assay: Growth inhibition of mouse BaF3 cells transfected with FLT3 assessed as inhibition of cell growth incubated for 72 hrs by Cell-titer-Glo assay; format: functional
BaF3 [9] = assay: Antitumour activity against mouse BaF3 cells transfected with MER implanted in C57BL/6J mouse assessed as reduction in tumour growth at 3 to 100 mg/kg, po bid for 6 days; format: functional, organism-based; settings: dose 3-100 mg/kg, time 6.0 day
BaF3 [10] = assay: Growth inhibition of mouse BaF3 cells transfected with Tyro3 assessed as inhibition of cell growth incubated for 72 hrs by Cell-titer-Glo assay; format: functional
BaF3 [11] = assay: Growth inhibition of mouse BaF3 cells transfected with AXL assessed as inhibition of cell growth incubated for 72 hrs by Cell-titer-Glo assay; format: functional
[12] = Fraction unbound in C57BL/6J mouse implanted with mouse BaF3 cells transfected with MER in at 3 to 100 mg/kg, po bid for 6 days; format: ADME, organism-based; settings: in vivo, dose 3-100 mg/kg, time 6 day
BaF3 [13] = assay: Growth inhibition of mouse BaF3 cells transfected with MER assessed as inhibition of cell growth incubated for 72 hrs by Cell-titer-Glo assay; format: functional
BaF3 [14] = assay: Antitumour activity against mouse BaF3 cells transfected with AXL implanted in C57BL/6J mouse assessed as reduction in tumour growth at 100 mg/kg, po bid for 6 days; format: functional, organism-based; settings: time 6.0 day
MC-38 = assay: Antitumour activity against mouse MC38 cells implanted in C57BL6 mouse assessed as increase in survival at 100 mg/kg, po bid for 2 weeks co-treatment with anti-PD1 further treated with ionizing radiation; format: functional, organism-based
[15] = Fraction unbound in C57BL/6J mouse implanted with mouse BaF3 cells transfected with AXL in at 3 to 100 mg/kg, po bid for 6 days; format: ADME, organism-based; settings: in vivo, dose 3-100 mg/kg, time 6 day
BaF3 [16] = assay: Growth inhibition of mouse BaF3 cells assessed as inhibition of cell growth incubated for 72 hrs by Cell-titer-Glo assay; format: functional
BaF3 [17] = assay: Antitumour activity against mouse BaF3 cells transfected with MER implanted in C57BL/6J mouse assessed as reduction in MER phosphorylation at 30 to 100 mg/kg, po bid for 6 days by western blot analysis; format: functional, organism-based; settings: dose 30-100 mg/kg, time 6.0 day

| pIC50 [1] | logD [2] | IC50 [3] | IC50 [4] | IC50 [5] | half-life [6] | SMILES | other results |
| --- | --- | --- | --- | --- | --- | --- | --- |
| 7.8 | 3.5 | 0.126 µM | 12.6 µM | > 31.6 µM | – | Cc1cc(-c2c(C)nn(C)c2C)ccc1-c1nnc(N(C)Cc2ccc3ncc(-c4cnn(CCN(C)C)c4)n3c2)o1 | – |
| – | 2.5 | 1.58 µM | > 31.6 µM | > 31.6 µM | – | Cc1cc(-c2c(C)nn(C)c2C)cnc1-c1nnc(N(C)Cc2ccc3ncc(-c4ccc(CN(C)C)nc4)n3c2)o1 | – |
| 7.1 | 3.3 | 0.398 µM | 25.1 µM | 10 µM | 17.8 days | Cc1cc(-c2c(C)nn(C)c2C)ccc1-c1nnc(N(C)Cc2ccc3ncc(C(=O)N(C)C)n3c2)o1 | – |
| 6.9 | 2.5 | 1.26 µM | > 31.6 µM | > 31.6 µM | – | Cc1cc(-c2c(C)nn(C)c2C)ccc1-c1nnc(N(C)Cc2ccc3ncc(C4CCN(C)CC4)n3c2)o1 | – |
| 6.7 | 5.3 | 0.2 µM | 20 µM | 7.94 µM | 11.4 days | Cc1cc(-c2c(C)nn(C)c2C)ccc1-c1nnc(N(C)Cc2ccc3ncc(-c4ccccc4)n3c2)o1 | – |
| 7.2 | 3 | 0.126 µM | > 31.6 µM | 25.1 µM | – | Cc1cc(-c2c(C)nn(C)c2C)cnc1-c1nnc(N(C)Cc2ccc3ncc(-c4ccc(CN(C)C)cn4)n3c2)o1 | – |
| 7.1 | 2.7 | 1 µM | > 31.6 µM | > 31.6 µM | – | Cc1cc(-c2c(C)nn(C)c2C)cnc1-c1nnc(N(C)Cc2ccc3ncc(-c4cnn(CCN(C)C)c4)n3c2)o1 | – |
| 7.2 | 4 | 0.0631 µM | 12.6 µM | 12.6 µM | 11.4 days | Cc1cc(-c2c(C)nn(C)c2C)ccc1-c1nnc(N(C)Cc2ccc3ncc(-c4cnn(C)c4)n3c2)o1 | – |
| – | 2.8 | – | – | 10 µM | – | CN1CCN(Cc2ccc(-c3ccc(CO[C@H]4CCC[C@@H]4NC(=O)c4cc(-c5cnn(C)c5)cnc4N)cc3)cc2)CC1 | Activity (BaF3 [7]): Active; GI50 (BaF3 [8]): 5.01 µM; Activity (BaF3 [9]): Active; GI50 (BaF3 [10]): 3.16 µM; GI50 (BaF3 [11]): 0.0501 µM; fraction unbound at 144 h [12]: 0.14; GI50 (BaF3 [13]): 0.00794 µM; Activity (BaF3 [14]): Active; Activity (MC-38): Active; fraction unbound at 144 h [15]: 0.14; GI50 (BaF3 [16]): 12.6 µM; Activity (BaF3 [17]): Active |
| 7 | 3 | 0.316 µM | > 31.6 µM | > 31.6 µM | – | Cc1cc(-c2c(C)nn(C)c2C)cnc1-c1nnc(N(C)Cc2ccc3ncc(-c4cccc(CN(C)C)c4)n3c2)o1 | – |
